Measured values: paper PMC10463376, “Design, synthesis, in vitro anticancer, molecular docking and SAR studies of new series of pyrrolo[2,3-d]pyrimidine derivatives” (BMC Chemistry, 2023)

Test system: lung cell line (A549)
Experiment: DNA fragmentation assay, A549
Assay type: cell-based, human
Conditions: A549, IC50, 24 h, vs negative control (P < 0.01); Dox. higher than 4b
Experimental: The DNA fragmentation assay in a pancreatic cell line (Paca2), breast cancer cell lines (MCF-7) and lung cell line (A549) was performed in concordance with the premises established by Yawata with some modifications. Briefly, after 24 h of exposure of Paca2, MCF-7 and A549 cancer cell lines to the prepared compounds in different Petri dishes (60 × 15 mm, Greiner), the cells were suspended and homogenized in 1 ml of medium and then centrifuged for 10 min at 900 rpm. The genomic DNA was extracted as shown in Yawata. About 1 × 10^6 cells of each tested cancer cell line were treated with the IC50 values of the tested compounds. All the cells were collected via trypsinization and washed with Dulbecco`s Phosphate Buffered Saline. Then, the cells were treated with the lysis buffer containing 5 mM ethylenediaminetetraacetic acid (EDTA), 10 mM Tris (pH 7.4), 0.5% Triton X-100 and 150 mM NaCl for 35 min on ice. […] Finally, the percentage of fragmented DNA was determined by performing gel electrophoresis using 2% agarose gel containing 0.1 μg/ml ethidium bromide.
Pancreatic cancer cell line (Paca2), breast cancer cell line (MCF-7) and lung cancer cell line (A549) were used to determine the percentage of DNA fragmentation after the treatment with IC50 of the tested compounds. […] The percentage of fragmented DNA was measured from the absorbance reading at 600 nm wavelength using the following formula: […]

## COc1ccc(-c2c(Cl)n(-c3ccc(Cl)cc3Cl)c3ncnc(Cl)c23)cc1OC [Compound 4b, 4,6-dichloro-7-(2,4-dichlorophenyl)-5-(3,4-dimethoxyphenyl)-7H-pyrrolo[2,3-d]pyrimidine]
  DNA fragmentation value: increased significantly
